How the values were obtained:
[1] = target: T1, 3-oxo-5-alpha-steroid 4-dehydrogenase 2 (Homo sapiens, UniProt P31213); test: Inhibition of human 5-alpha reductase 2 isozyme.
T1 sequence (P31213 whole entry): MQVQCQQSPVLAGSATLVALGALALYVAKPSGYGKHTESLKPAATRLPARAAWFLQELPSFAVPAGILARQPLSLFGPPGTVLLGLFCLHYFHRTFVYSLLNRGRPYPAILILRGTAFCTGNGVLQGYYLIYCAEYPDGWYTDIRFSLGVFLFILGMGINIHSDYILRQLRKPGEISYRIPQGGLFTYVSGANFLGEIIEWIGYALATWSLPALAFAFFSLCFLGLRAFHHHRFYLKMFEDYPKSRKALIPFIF

[2] = target: T2, 3-oxo-5-alpha-steroid 4-dehydrogenase 1 (Homo sapiens, UniProt P18405); test: Inhibitory concentration was tested on human 5-alpha reductase 1 isozyme
T2 sequence (P18405 whole entry): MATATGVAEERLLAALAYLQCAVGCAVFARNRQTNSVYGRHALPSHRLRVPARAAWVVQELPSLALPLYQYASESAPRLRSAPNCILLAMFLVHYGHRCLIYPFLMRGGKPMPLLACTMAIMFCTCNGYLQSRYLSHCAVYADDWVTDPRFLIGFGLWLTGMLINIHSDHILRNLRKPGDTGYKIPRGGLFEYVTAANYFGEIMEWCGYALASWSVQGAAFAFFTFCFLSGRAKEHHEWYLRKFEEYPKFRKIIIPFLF

[3] = target: T3, Alpha-1B adrenergic receptor (Homo sapiens, UniProt P35368); test: Binding affinity was tested on human Alpha-1B adrenergic receptor
T3 sequence (P35368 whole entry): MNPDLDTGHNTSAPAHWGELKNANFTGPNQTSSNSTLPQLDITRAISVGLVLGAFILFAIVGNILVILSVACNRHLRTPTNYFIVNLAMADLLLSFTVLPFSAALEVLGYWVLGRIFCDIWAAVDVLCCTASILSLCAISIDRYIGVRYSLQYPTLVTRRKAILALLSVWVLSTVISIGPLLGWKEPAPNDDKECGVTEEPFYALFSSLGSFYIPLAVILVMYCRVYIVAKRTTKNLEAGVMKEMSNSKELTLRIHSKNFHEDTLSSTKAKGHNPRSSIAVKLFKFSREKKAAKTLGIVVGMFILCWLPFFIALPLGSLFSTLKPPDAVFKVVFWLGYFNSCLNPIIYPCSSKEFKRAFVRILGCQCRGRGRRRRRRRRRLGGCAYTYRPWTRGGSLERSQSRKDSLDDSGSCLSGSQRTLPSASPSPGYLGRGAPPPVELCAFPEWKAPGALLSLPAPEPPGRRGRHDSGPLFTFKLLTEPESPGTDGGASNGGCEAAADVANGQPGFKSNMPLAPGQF

[4] = Apparent binding affinity on human 5-alpha reductase isozyme
[5] = target: T4, Alpha-1D adrenergic receptor (Homo sapiens, UniProt P25100); test: Binding affinity was tested on human Alpha-1D adrenergic receptor
T4 sequence (P25100 whole entry): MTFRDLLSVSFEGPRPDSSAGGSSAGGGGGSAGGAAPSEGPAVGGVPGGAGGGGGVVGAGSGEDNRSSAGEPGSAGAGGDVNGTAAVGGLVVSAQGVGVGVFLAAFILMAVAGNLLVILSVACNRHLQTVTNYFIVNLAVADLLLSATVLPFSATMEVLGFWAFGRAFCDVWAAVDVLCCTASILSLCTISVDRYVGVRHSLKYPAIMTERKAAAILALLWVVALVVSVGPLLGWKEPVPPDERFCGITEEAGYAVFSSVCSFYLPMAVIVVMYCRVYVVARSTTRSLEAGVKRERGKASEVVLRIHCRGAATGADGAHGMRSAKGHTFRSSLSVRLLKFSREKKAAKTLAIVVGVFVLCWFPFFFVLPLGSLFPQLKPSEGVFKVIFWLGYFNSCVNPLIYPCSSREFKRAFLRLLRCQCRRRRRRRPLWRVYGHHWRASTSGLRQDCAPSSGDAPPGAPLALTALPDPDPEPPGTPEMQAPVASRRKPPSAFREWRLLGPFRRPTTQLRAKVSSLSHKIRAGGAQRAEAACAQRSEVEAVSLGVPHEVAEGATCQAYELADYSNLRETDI

[6] = target: T5, Alpha-1A adrenergic receptor (Homo sapiens, UniProt P35348); test: Binding affinity was tested on human Alpha-1A adrenergic receptor
T5 sequence (P35348 whole entry): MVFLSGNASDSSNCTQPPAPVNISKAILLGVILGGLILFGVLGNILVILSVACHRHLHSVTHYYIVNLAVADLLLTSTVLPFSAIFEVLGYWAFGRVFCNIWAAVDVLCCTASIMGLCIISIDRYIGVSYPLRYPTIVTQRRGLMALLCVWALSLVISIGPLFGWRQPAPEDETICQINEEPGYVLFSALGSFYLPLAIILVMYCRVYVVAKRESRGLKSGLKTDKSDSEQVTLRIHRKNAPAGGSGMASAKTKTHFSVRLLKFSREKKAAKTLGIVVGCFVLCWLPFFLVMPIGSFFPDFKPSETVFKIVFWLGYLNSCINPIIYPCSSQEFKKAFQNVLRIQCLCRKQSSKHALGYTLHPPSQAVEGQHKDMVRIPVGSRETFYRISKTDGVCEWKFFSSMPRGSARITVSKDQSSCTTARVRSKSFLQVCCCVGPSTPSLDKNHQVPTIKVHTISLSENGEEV

[7] = target: T6, Steroid 5-alpha-reductase (Rattus norvegicus, UniProt P24008+P31214); test: Inhibition of rat 5-alpha reductase isozyme.; assay type: protein assay
T6 sequence (P24008 whole entry): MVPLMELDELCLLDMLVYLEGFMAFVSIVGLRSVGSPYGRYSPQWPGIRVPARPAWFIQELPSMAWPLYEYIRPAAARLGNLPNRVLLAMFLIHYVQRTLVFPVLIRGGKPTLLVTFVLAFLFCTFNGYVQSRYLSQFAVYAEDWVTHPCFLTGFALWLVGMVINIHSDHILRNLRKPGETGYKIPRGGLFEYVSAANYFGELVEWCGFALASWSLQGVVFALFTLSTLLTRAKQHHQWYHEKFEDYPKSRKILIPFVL
T6 sequence (P31214 whole entry): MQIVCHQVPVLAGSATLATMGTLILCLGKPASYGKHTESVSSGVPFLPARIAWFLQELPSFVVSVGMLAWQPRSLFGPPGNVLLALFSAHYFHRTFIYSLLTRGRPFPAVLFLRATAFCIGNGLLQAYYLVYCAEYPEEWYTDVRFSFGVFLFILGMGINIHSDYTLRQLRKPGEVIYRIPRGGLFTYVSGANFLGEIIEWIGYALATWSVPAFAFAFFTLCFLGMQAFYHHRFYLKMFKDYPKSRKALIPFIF

| Compound | IC50 [1] [nM] | IC50 [2] [nM] | Ki [3] [nM] | Ki [5] [nM] | Ki [6] [nM] | also measured |
| --- | --- | --- | --- | --- | --- | --- |
| CCN1C(=O)CC[C@]2(C)C3CC[C@@]4(C)C(CC[C@@H]4C(C)CCCC(C)C)C3[C@@H](C)CC12 (some centres not stated) | 1390 | 3.3 |  |  |  |  |
| CCOc1ccccc1OCCN[C@H](C)Cc1ccc(OC)c(S(N)(=O)=O)c1 (stereo in doubt; form 2) [TAMSULOSIN] |  |  | 1.26 |  |  |  |
| CC(C)N(C(=O)[C@H]1CCC2C3CC=C4C=C(C(=O)O)CC[C@]4(C)C3CC[C@@]21C)C(C)C (some centres not stated) |  |  |  |  |  | Ki [4]: 7 nM |
| C[C@]12C=CC(=O)NC1CCC1C2CC[C@@]2(C)C1CC[C@@H]2C(=O)Nc1ccccc1C(F)(F)F (some centres not stated) | < 0.1 | 5.6 |  |  |  |  |
| CO/C(O)=C1\C(C)=NC(C)=C(C(=O)NCCCN2CCC(c3ccccc3)(c3ccccc3)CC2)C1c1ccc(OC(C)C)cc1 (configuration not stated) |  |  | 174 | 891 | 69.2 |  |
| CCOc1ccccc1OCCN[C@H](C)Cc1ccc(OC)c(S(N)(=O)=O)c1 (stereo in doubt; form 3) [TAMSULOSIN] |  |  | 100 | 7.94 |  |  |
| COc1c(C)c(C)c(O)c(C)c1CN(C)CCOc1cc(C)c(O)cc1C(C)C |  |  | 1.26 | 1.26 | 0.398 |  |
| CC(C)CCCC(C)[C@H]1CCC2C3CC=C4NC(=O)CC[C@]4(C)C3CC[C@@]21C (some centres not stated) |  | 19.1 |  |  |  |  |
| COc1ccc(CCNCC2CCc3ccccc3C2)cc1 (configuration not stated) |  |  | 39.8 | 158 | 3.98 |  |
| CC(C)Cc1ccc([C@@H](C)Oc2ccc(C(=O)c3cn(CCCC(=O)O)c4ccccc34)cc2)cc1 | 69 | 574 |  |  |  | IC50 [7]: 30 nM |
| CCC1=C(C(=O)NCCCN2CCC(c3ccccc3)(c3ccccc3)CC2)C(c2ccc([N+](=O)[O-])cc2)/C(=C(\O)OC)C(C)=N1 (configuration not stated) |  |  | 148 | 204 | 0.661 |  |
| CCCc1ccc(OC(C)c2ccc(C(=O)c3cn(CCCC(=O)O)c4ccccc34)cc2)cc1 (configuration not stated) | 10 | 8 |  |  |  | IC50 [7]: 5 nM |
| CC(C)N(C(=O)[C@H]1CCC2C3CCC4C=C([N+](=O)[O-])C=CC4(C)C3CC[C@@]21C)C(C)C (single isomer, unassigned) |  |  |  |  |  | Ki [4]: > 5000 nM |
| C[C@]12C=CC(=O)NC1CCC1C2CC[C@@]2(C)C1CC[C@@H]2C(=O)N(c1ccccc1)c1ccccc1 (some centres not stated) | 25.2 | > 1000 |  |  |  |  |
| Cc1c(C(=O)c2ccc3c(c2)OC(c2ccc(Cl)cc2)(c2ccc(Cl)cc2)O3)c2ccccc2n1CCCC(=O)O | 6300 | 10 |  |  |  | IC50 [7]: 588 nM |
| CCC1=NC(CC)=C(C(=O)NCCCN2CCC(c3ccccc3)(c3ccccc3)CC2)C(c2ccc([N+](=O)[O-])cc2)/C1=C(\O)OC (configuration not stated) |  |  | 282 | 447 | 1.26 |  |
| CC(C)N(C(=O)[C@H]1CCC2C3CCC4C=C([N+](=O)[O-])CC[C@]4(C)C3CC[C@@]21C)C(C)C (some centres not stated) |  |  |  |  |  | Ki [4]: 50 nM |
| C[C@H](Cc1cc2c(c(C(N)=O)c1)N(CCCO)CC2)NCCOc1ccccc1OCC(F)(F)F [SILODOSIN] |  |  | 20 | 2 | 0.0398 |  |
| CN(C(=O)[C@H]1CCC2C3CCC4NC(=O)C=C[C@]4(C)C3CC[C@@]21C)c1ccccc1 (some centres not stated) | 0.2 | 350 |  |  |  |  |

From ChEMBL document CHEMBL1129998, “Pharmacological options in the treatment of benign prostatic hyperplasia” (J Med Chem, 1997)
